Read-outs that look alike come from different tables or passages of the source.
Experiments:
[1] = Pharmacokinetic test in mice; type: in vivo; conditions: male CD-1 mice; for AUC(0-t): read-out: Area under Curve AUC0-last
Experimental: The drug concentrations of the compounds in plasma at different time points were determined by LC/MS/MS method after single intravenous (IV) and intragastric (PO) administration of the compounds to 7-9 week old male CD-1 mice as the test animals. The pharmacokinetic behaviors of the compounds of the present invention in mice were studied and pharmacokinetic properties thereof were evaluated.
The compounds were prepared into clear solutions using 5% DMSO+10% solutol+85% water as a solvent for administration in IV (intravenous injection) and PO (gavage) groups. The administration dosage of each compound was 3 mg/kg for the IV group and […] for the PO group.

[2] = system: human colon cancer cell line KM12 cells subcutaneous xenograft tumor; assay: Efficacy test in mice, KM12 subcutaneous xenograft; type: in vivo, BALB/c mouse; conditions: PO
Experimental: The in vivo efficacy of test drugs such as the compound of Formula (I) on human colon cancer cell line KM12 cells subcutaneous xenograft tumor in a BALB/c mouse model was evaluated.
The compounds were prepared into clear solutions using 5% DMSO+10% solutol+85% water as a solvent for administration in PO (gavage) groups.
The tumor diameter was measured twice a week using a vernier caliper. The formula for calculating the tumor volume is: V=0.5×a×b^2, wherein a and b represent the long diameter and the short diameter of the tumor, respectively. The antitumor efficacy of the compounds was evaluated with TGI (%), which reflects the inhibition rate of tumor growth.
Statistical analysis was performed using SPSS software based on relative tumor volume and tumor weight at the end of the experiment. Comparisons among multiple groups were analyzed by one-way ANOVA. If the variances were homogeneous (no significant difference in F-values), the analysis was performed by the Tukey's method, and if the variances were not homogeneous (significant difference in F-values), the test was performed by the Games-Howell method. P<0.05 was considered as a significant difference.

Ba/F3 SLC34A2-ROS1-WT = assay: Cell proliferation inhibition (CellTiter-Glo, 72 h); type: cell-based; conditions: Mus musculus, BaF3, read-out: Half Inhibitory Concentrations of Cells IC50, Ba/F3 SLC34A2-ROS1-WT
Ros-G2032R = molecular target: T1, Ros-G2032R (Homo sapiens, UniProt P08922, G2032R); assay: Kinase inhibitory activity (33P-ATP filtration-binding, Reaction Biology Corp.); type: biochemical; conditions: read-out: Half Inhibitory Concentrations of Kinases IC50, Ros-G2032R
T1 construct: purchased Reaction Biology Corp
Experimental: (§1) The resulting mixture was incubated at room temperature for 20 minutes, and a certain concentration of 33P-ATP was added to the reaction mixture to initiate the reaction, followed by incubation at room temperature for 120 minutes. Finally, the radioactivity of the reactants was detected by a filtration-binding method. The final kinase activity was expressed by the ratio of the remaining kinase activity in the test sample to the kinase activity of the DMSO control group. The dose-effect curve was fitted by GraphPad software and the IC50 values were calculated.

TrkA-G667C = molecular target: T2, TrkA-G667C (Homo sapiens, UniProt P04629, G667C); assay: as above; type: biochemical; conditions: read-out: Half Inhibitory Concentrations of Kinases IC50, TrkA-G667C
T2 construct: purchased Reaction Biology Corp
Experimental: as §1

TrkC = molecular target: T3, TrkC (Homo sapiens, UniProt Q16288); assay: as above; type: biochemical; conditions: read-out: Half Inhibitory Concentrations of Kinases IC50, TrkC
T3 construct: purchased Reaction Biology Corp
Experimental: as §1

TrkA-G595R = molecular target: T4, TrkA-G595R (Homo sapiens, UniProt P04629, G595R); assay: as above; type: biochemical; conditions: read-out: Half Inhibitory Concentrations of Kinases IC50, TrkA-G595R
T4 construct: purchased Reaction Biology Corp
Experimental: as §1

Ros1 = molecular target: T5, Ros1 (Homo sapiens, UniProt P08922); assay: as above; type: biochemical; conditions: read-out: Half Inhibitory Concentrations of Kinases IC50, Ros1
T5 construct: purchased Reaction Biology Corp
Experimental: as §1

TrkA = molecular target: T6, TrkA (Homo sapiens, UniProt P04629); assay: as above; type: biochemical; conditions: read-out: Half Inhibitory Concentrations of Kinases IC50, TrkA
T6 construct: purchased Reaction Biology Corp
Experimental: as §1

BaF3 ETV6-NTRK3-G623R = assay: Cell proliferation inhibition (CellTiter-Glo, 72 h); type: cell-based; conditions: Mus musculus, read-out: Half Inhibitory Concentrations of Cells IC50, BaF3 ETV6-NTRK3-G623R
[3] = Cassette pharmacokinetic test in mice (plasma, brain, CSF); type: in vivo, male CD-1 mice; conditions: cassette; for AUC(0-inf): read-out: Area under Curve AUC0-inf
Experimental: The pharmacokinetic behaviors of the compounds of the present invention in mice were studied and the pharmacokinetic properties thereof were evaluated.

T3 sequence (Q16288 32-839): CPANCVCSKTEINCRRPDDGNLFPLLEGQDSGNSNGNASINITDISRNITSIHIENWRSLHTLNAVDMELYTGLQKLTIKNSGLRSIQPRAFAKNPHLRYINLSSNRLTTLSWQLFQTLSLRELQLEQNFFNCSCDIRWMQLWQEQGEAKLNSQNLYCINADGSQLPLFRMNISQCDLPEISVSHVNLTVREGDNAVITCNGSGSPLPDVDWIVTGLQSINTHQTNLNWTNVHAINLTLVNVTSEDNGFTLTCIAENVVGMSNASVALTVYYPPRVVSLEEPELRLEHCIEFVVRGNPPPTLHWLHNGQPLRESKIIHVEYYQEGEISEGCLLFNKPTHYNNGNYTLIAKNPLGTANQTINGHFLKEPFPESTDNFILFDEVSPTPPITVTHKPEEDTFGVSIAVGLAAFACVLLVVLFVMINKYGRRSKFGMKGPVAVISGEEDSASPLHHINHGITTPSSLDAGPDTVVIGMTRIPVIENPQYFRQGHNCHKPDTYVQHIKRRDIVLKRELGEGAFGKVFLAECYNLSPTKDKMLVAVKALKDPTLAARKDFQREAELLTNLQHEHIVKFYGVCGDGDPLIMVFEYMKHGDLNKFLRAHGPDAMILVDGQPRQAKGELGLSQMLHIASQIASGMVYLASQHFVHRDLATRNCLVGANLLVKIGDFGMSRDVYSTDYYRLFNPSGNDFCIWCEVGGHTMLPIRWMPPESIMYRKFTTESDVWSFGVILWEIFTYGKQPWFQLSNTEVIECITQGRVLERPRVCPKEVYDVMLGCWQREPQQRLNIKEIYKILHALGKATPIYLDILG
T6 sequence (P04629 33-796): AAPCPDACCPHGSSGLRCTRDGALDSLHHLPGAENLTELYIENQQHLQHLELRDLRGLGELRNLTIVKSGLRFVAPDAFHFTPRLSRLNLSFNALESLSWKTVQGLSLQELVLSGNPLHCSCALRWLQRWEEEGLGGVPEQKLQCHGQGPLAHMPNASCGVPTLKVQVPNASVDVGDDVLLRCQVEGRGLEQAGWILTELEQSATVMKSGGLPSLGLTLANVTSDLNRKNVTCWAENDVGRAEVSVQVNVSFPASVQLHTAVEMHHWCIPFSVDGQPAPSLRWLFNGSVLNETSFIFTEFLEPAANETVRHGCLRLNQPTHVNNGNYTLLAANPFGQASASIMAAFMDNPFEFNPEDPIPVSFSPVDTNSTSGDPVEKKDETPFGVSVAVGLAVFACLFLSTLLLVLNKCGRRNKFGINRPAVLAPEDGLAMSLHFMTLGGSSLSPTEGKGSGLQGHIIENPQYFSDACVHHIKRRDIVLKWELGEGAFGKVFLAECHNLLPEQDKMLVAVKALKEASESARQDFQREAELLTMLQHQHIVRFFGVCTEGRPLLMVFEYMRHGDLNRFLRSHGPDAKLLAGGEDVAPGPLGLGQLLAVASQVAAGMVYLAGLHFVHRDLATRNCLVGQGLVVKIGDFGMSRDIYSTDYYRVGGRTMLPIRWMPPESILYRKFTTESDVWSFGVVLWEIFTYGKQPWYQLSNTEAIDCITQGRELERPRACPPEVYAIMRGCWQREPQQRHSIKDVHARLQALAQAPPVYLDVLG
T2 sequence (P04629 33-796 G667C): as the sequence (P04629 33-796) above, with G635C counted along it
T4 sequence (P04629 33-796 G595R): as the sequence (P04629 33-796) above, with G563R counted along it
T5 sequence (P08922 28-2347): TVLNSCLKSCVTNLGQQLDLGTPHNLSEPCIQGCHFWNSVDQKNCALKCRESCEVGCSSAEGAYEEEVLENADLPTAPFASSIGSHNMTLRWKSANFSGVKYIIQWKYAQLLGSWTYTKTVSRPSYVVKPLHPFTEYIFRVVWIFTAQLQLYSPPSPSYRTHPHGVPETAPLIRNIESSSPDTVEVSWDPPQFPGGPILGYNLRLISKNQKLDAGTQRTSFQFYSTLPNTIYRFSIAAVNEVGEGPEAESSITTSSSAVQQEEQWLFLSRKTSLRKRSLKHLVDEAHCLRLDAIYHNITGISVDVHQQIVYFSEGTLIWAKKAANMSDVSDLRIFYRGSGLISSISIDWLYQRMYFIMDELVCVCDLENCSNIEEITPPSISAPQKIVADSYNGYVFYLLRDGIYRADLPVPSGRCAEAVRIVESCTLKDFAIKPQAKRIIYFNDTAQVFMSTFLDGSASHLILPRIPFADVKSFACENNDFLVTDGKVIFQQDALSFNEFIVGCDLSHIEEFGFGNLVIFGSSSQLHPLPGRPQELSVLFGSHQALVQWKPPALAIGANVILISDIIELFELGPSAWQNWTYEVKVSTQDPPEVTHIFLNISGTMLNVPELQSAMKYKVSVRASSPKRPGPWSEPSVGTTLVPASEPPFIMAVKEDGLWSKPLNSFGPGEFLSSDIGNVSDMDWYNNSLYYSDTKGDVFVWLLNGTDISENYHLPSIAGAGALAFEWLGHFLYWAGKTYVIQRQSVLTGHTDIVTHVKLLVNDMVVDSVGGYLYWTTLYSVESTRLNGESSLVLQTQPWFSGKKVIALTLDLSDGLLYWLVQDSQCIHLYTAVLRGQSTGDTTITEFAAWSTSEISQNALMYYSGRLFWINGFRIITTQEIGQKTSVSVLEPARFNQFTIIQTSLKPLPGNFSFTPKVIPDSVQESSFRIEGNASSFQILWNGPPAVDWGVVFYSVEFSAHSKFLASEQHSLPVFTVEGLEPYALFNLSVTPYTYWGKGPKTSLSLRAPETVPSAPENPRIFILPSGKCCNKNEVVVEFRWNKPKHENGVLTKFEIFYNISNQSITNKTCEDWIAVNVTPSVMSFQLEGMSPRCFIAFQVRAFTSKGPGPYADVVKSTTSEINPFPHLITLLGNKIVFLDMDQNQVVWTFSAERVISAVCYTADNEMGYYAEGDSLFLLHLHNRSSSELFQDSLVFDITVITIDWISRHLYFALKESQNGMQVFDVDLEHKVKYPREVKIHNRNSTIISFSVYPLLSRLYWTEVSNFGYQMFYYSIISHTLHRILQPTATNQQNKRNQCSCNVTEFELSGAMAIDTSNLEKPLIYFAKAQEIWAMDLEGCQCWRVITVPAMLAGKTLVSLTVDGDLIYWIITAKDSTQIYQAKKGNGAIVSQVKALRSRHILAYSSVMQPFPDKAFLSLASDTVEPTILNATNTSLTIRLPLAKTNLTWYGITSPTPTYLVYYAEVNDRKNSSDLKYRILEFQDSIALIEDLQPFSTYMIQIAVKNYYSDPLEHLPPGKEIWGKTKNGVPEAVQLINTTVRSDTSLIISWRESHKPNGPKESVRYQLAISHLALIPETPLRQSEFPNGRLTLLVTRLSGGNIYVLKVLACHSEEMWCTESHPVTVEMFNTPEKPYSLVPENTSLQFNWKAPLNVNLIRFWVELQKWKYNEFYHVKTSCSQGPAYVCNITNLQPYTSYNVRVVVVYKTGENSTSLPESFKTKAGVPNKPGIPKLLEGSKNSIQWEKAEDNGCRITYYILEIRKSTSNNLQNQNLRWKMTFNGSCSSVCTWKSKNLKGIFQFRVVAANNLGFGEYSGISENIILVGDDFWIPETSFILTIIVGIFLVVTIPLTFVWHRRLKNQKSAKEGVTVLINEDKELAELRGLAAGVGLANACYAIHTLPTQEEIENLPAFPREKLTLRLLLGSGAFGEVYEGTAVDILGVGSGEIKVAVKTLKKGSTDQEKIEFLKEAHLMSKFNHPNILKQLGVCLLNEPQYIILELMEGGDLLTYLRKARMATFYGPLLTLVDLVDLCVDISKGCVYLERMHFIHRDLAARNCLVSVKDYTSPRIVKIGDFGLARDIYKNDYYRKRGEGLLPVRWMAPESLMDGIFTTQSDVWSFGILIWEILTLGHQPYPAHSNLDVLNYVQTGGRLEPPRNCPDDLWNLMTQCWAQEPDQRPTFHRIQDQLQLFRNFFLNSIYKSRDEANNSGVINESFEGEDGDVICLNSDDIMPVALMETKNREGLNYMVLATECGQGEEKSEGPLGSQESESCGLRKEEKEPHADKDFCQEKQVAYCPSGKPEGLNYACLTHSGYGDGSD
T1 sequence (P08922 28-2347 G2032R): as the sequence (P08922 28-2347) above, with G2005R counted along it

O=C1NC2(CC2)COc2ncc(F)cc2[C@H]2CCON2c2ccn3ncc1c3n2 [Compound of Formula (I)]
Apparent Clearance Cl ([1]; IV, 3 mg/kg): 7.2 mL/min/kg
Vd ([1]; mouse, plasma, IV, 3 mg/kg, read-out: Apparent Distribution Volume Vd): 0.49 L/kg
AUC(0-t) ([1]; mouse, plasma, IV, 3 mg/kg): 17.5 µM·h
half-life ([1]; mouse, plasma, IV, 3 mg/kg, read-out: Half-life T1/2 (converted)): 45 min
bioavailability ([1]; mouse, plasma, PO (10 mL/kg [sic]) vs IV 3 mg/kg, read-out: Bioavailability F %): 51%
AUC(0-t) ([1]; mouse, plasma, PO, dosage given as 10 mL/kg): 29.8 µM·h
Cmax ([1]; mouse, plasma, PO, dosage given as 10 mL/kg, read-out: Peak Concentration Cmax): 9.14 µM
Tmax ([1]; mouse, plasma, PO, dosage given as 10 mL/kg, read-out: Time to Peak Tmax): 30 min
T/C ([2]; 3 mg/kg): 33.18%
TGI ([2]; 3 mg/kg): 71.23%
T/C ([2]; 15 mg/kg): 15.63%
TGI ([2]; 15 mg/kg): 88.61%
IC50 (Ba/F3 SLC34A2-ROS1-WT): 2.53 nM
IC50 (Ros-G2032R): 0.4 nM
IC50 (TrkA-G667C): 7 nM
IC50 (TrkC): 0.14 nM
IC50 (TrkA-G595R): 3.6 nM
IC50 (Ros1): 0.14 nM
IC50 (TrkA): 2.07 nM
IC50 (BaF3 ETV6-NTRK3-G623R): 3.4 nM
Apparent Clearance Cl ([3]; IV @ 1 mpk, male CD-1 mice): 6.3 mL/min/kg
Drug Concentration in Cerebrospinal Fluid at 0.5 h ([3]; PO @ 3 mpk, CSF, 0.5 h): 63 nmol/kg
Drug Concentration in Cerebrospinal Fluid at 2 h ([3]; PO @ 3 mpk, CSF, 2 h): 21 nmol/kg
Drug Concentration in Brain at 0.5 h ([3]; PO @ 3 mpk, brain, 0.5 h): 663 nmol/kg
Drug Concentration in Brain at 2 h ([3]; PO @ 3 mpk, brain, 2 h): 343 nmol/kg
Vd ([3]; mouse, plasma, 1 mg/kg, IV @ 1 mpk, male CD-1 mice, read-out: Apparent Distribution Volume Vd): 0.57 L/kg
AUC(0-inf) ([3]; mouse, plasma, 1 mg/kg, IV @ 1 mpk, male CD-1 mice): 6.69 µM·h
half-life ([3]; mouse, plasma, 1 mg/kg, IV @ 1 mpk, male CD-1 mice, read-out: Half-life T1/2 (converted)): 52.8 min
C0 ([3]; mouse, plasma, 1 mg/kg, IV @ 1 mpk, male CD-1 mice, read-out: Initial Concentration C0): 3.71 µM
bioavailability ([3]; mouse, plasma, 3 mg/kg, PO @ 3 mpk vs IV @ 1 mpk, male CD-1 mice, read-out: Bioavailability F %): 76%
AUC(0-inf) ([3]; mouse, plasma, 3 mg/kg, PO @ 3 mpk, male CD-1 mice): 19.8 µM·h
Cmax ([3]; mouse, plasma, 3 mg/kg, PO @ 3 mpk, male CD-1 mice, read-out: Peak Concentration Cmax): 4.74 µM
Tmax ([3]; mouse, plasma, 3 mg/kg, PO @ 3 mpk, male CD-1 mice, read-out: Time to Peak Tmax): 15 min
